In patent US12668845B2, “Methods for predicting drug responsiveness in cancer patients” (Allarity Therapeutics Europe ApS, priority 2018, dated 2026):

Assays:
HepG2 = assay: Growth inhibition of cell lines treated with 2X-121; type: cell-based; settings: Homo sapiens; cell line HepG2, origin HCC; read-out: Measured growth inhibition IC50
MDA-MB-231 = assay: as above; type: cell-based; settings: Homo sapiens; cell line MDA-MB-231, origin Breast; read-out: Measured growth inhibition IC50
ARH-77 = assay: as above; type: cell-based; settings: Homo sapiens; cell line ARH-77, origin Myeloma; read-out: Measured growth inhibition IC50
MDA-MB-436 = assay: as above; type: cell-based; settings: Homo sapiens; cell line MDA-MB-436, origin Breast; read-out: Measured growth inhibition IC50
NCI-H524 = assay: as above; type: cell-based; settings: Homo sapiens; cell line NCI-H524, origin SCLC; read-out: Measured growth inhibition IC50
SNG-M = assay: as above; type: cell-based; settings: cell line SNG-M, origin Endometrial; read-out: Measured growth inhibition IC50
HCC1143 = assay: as above; type: cell-based; settings: Homo sapiens; cell line HCC1143, origin Breast; read-out: Measured growth inhibition IC50
HEC-88nu = assay: as above; type: cell-based; settings: cell line HEC-88nu, origin Endometrial; read-out: Measured growth inhibition IC50
NCI-H446 = assay: as above; type: cell-based; settings: Homo sapiens; cell line NCI-H446, origin SCLC; read-out: Measured growth inhibition IC50
Experimental: (§1) The NCI60 panel of cell lines can be used to determine sensitivity to 2X-121, but it is also possible to use other cell line panels.
(§2) Baseline DNA chip measurements of 61 of the cancer cell lines in Table 1 (excluding M14 HEC-1 ECC-1 SNG-II HEC-88nu SR IM-9 Namalwa MC/CAR U266 JVM-13 NCEB-1 ARH-77) were performed using Affymetrix HG-U133Plus2 arrays and logit normalized. For each array, the logit transformation was performed followed by a Z-transformation to mean zero and SD 1, and correlated to growth inhibition (−log(GI50)). The expression level of each of the genes of Tables 2 and 3 in each cell line was correlated to the growth of those cell lines (log(GI50)) in the presence of 2X-121. The Pearson correlation coefficient was then determined to identify genes positively and negatively correlated to sensitivity to 2X-121. Tables 2 and 3 show the top positively correlated genes (the biomarkers of sensitivity) and negatively correlated genes (the biomarkers of resistance). In particular, genes with a Pearson correlation greater than 0.25 or below −0.25 can be classified as biomarkers of sensitivity or resistance, respectively.

C3A = assay: as above; type: cell-based; settings: Homo sapiens; cell line C3A, origin HCC; read-out: Measured growth inhibition IC50
Experimental: as §1, §2

HT = assay: as above; type: cell-based; settings: Homo sapiens; cell line HT, origin DLBCL (GC); read-out: Measured growth inhibition IC50
Experimental: as §1, §2

HT-1080 = assay: as above; type: cell-based; settings: Homo sapiens; cell line HT-1080, origin Fibrosarcoma; read-out: Measured growth inhibition IC50
Experimental: as §1, §2

JVM-2 = assay: as above; type: cell-based; settings: Homo sapiens; cell line JVM-2, origin MCL; read-out: Measured growth inhibition IC50
Experimental: as §1, §2

KG-1 = assay: as above; type: cell-based; settings: Homo sapiens; cell line KG-1, origin AML; read-out: Measured growth inhibition IC50
RPMI-8226 = assay: as above; type: cell-based; settings: Homo sapiens; cell line RPMI-8226, origin Myeloma; read-out: Measured growth inhibition IC50
JVM-13 = assay: as above; type: cell-based; settings: JVM13; cell line JVM-13, origin MCL; read-out: Measured growth inhibition IC50
RL95-2 = assay: as above; type: cell-based; settings: Homo sapiens; cell line RL95-2, origin Endometrial; read-out: Measured growth inhibition IC50
[1] = test system: P-glycoprotein expressing cells; settings: cited from earlier work
U937 = assay: Growth inhibition of cell lines treated with 2X-121; type: cell-based; settings: Homo sapiens, U-937; cell line U937, origin Histiocytic lymphoma-monocytic; read-out: Measured growth inhibition IC50
HEC-108 = assay: as above; type: cell-based; settings: cell line HEC-108, origin Endometrial; read-out: Measured growth inhibition IC50
Mino = assay: as above; type: cell-based; settings: Homo sapiens; cell line Mino, origin MCL; read-out: Measured growth inhibition IC50
BT-20 = assay: as above; type: cell-based; settings: Homo sapiens; cell line BT-20, origin Breast; read-out: Measured growth inhibition IC50
A549 = assay: as above; type: cell-based; settings: Homo sapiens; cell line A549, origin NSCLC; read-out: Measured growth inhibition IC50
MC/CAR = assay: as above; type: cell-based; settings: cell line MC/CAR, origin Myeloma; read-out: Measured growth inhibition IC50
HL-60 = assay: as above; type: cell-based; settings: Homo sapiens; cell line HL-60, origin Promyelocytic leukemia; read-out: Measured growth inhibition IC50
HEC-1A = assay: as above; type: cell-based; settings: Homo sapiens; cell line HEC-1A, origin Endometrial; read-out: Measured growth inhibition IC50
SNU-423 = assay: as above; type: cell-based; settings: Homo sapiens; cell line SNU-423, origin HCC; read-out: Measured growth inhibition IC50
[2] = cited from earlier work
AN3 CA = assay: Growth inhibition of cell lines treated with 2X-121; type: cell-based; settings: Homo sapiens; cell line AN3 CA, origin Endometrial; read-out: Measured growth inhibition IC50

SMILES: O=c1[nH]nc2c3c(cccc13)N=C(CN1Cc3ccccc3C1)N2 [2X-121, 8-(isoindolin-2-ylmethyl)-2,9-dihydro-3H-pyridazino[3,4,5-de]quinazolin-3-one]
- IC50 (HepG2): 3800 nM
- IC50 (MDA-MB-231): 25000 nM
- IC50 (ARH-77): 3200 nM
- IC50 (MDA-MB-436): 190 nM
- IC50 (NCI-H524): 690 nM
- IC50 (SNG-M): 1360 nM
- IC50 (HCC1143): 3700 nM
- IC50 (HEC-88nu): 1140 nM
- IC50 (NCI-H446): 610 nM
- IC50 (C3A): 2540 nM
- IC50 (HT): 660 nM
- IC50 (HT-1080): 830 nM
- IC50 (JVM-2): 14000 nM
- IC50 (KG-1): 2000 nM
- IC50 (RPMI-8226): 9300 nM
- IC50 (JVM-13): 7300 nM
- IC50 (RL95-2): 2130 nM
- activity in P-glycoprotein expressing cells [1]: active
- IC50 (U937): 2700 nM
- IC50 (HEC-108): 5970 nM
- IC50 (Mino): 3400 nM
- IC50 (BT-20): 7900 nM
- IC50 (A549): 2200 nM
- IC50 (MC/CAR): 2300 nM
- IC50 (HL-60): 10300 nM
- IC50 (HEC-1A): 2960 nM
- IC50 (SNU-423): 19000 nM
- oral bioavailability [2]: orally bioavailable
- IC50 (AN3 CA): 1490 nM
